Data taken from the NIST ThermoML archive (doi:10.1021/acs.jced.5b00348).
Several values for one entry are separate records, joined by “and”; a condition that tells them apart may be missing. Equal entries are not always repeated.

Conditions: for vapor or sublimation pressure: Closed cell (Static) method

FC(F)(F)/C=C/Cl [(E)-1-chloro-3,3,3-trifluoroprop-1-ene]
Conditions | mass density [kg/m3] | speed of sound
215.01 K, 1815.3 kPa, Liquid | 1449.31 | –
220 K, 1921.7 kPa, Liquid | 1439.12 | –
220 K, 8321.7 kPa, Liquid | 1447.77 | –
225 K, 8257.8 kPa, Liquid | 1437.64 | –
230 K, 14558 kPa, Liquid | 1436.27 | –
235 K, 1363.6 kPa, Liquid | 1406.94 | –
235 K, 5155.5 kPa, Liquid | 1412.84 | –
235 K, 10102 kPa, Liquid | 1420.19 | –
235 K, 15131 kPa, Liquid | 1427.32 | –
235 K, 20809 kPa, Liquid | 1434.98 | –
240 K, 7088 kPa, Liquid | 1405.56 | –
245 K, 12803 kPa, Liquid | 1404.29 | –
250 K, 18468 kPa, Liquid | 1403.09 | –
255 K, 1176.9 kPa, Liquid | 1363.85 | –
255 K, 5115 kPa, Liquid | 1371.16 | –
255 K, 10377 kPa, Liquid | 1380.36 | –
255 K, 15392 kPa, Liquid | 1388.62 | –
255 K, 21124 kPa, Liquid | 1397.53 | –
255 K, 24078 kPa, Liquid | 1401.93 | –
260 K, 6173.2 kPa, Liquid | 1362.59 | –
265 K, 11152 kPa, Liquid | 1361.41 | –
270 K, 16100 kPa, Liquid | 1360.29 | –
275 K, 1267.3 kPa, Liquid | 1319.85 | –
275 K, 4966.8 kPa, Liquid | 1328.13 | –
275 K, 10048 kPa, Liquid | 1338.72 | –
275 K, 15054 kPa, Liquid | 1348.44 | –
275 K, 21020 kPa, Liquid | 1359.23 | –
280 K, 5624.6 kPa, Liquid | 1318.7 | –
285 K, 9970.2 kPa, Liquid | 1317.63 | –
289.99 K, 80.81 kPa, Gas | – | 137.76 m/s
290.01 K, 14296 kPa, Liquid | 1316.62 | –
290.06 K, 80.8 kPa, Gas | – | 137.77 m/s
295 K, 1205.6 kPa, Liquid | 1273.49 | –
295 K, 5284 kPa, Liquid | 1284.64 | –
295 K, 10000 kPa, Liquid | 1296.45 | –
295 K, 14695 kPa, Liquid | 1307.26 | –
295 K, 18582 kPa, Liquid | 1315.63 | –
299.99 K, 4671.2 kPa, Liquid | 1271.6 | –
300 K, 4941.7 kPa, Liquid | 1272.36 | –
300.01 K, 79.96 kPa, Gas | – | 140.51 m/s
300.01 K, 80 kPa, Gas | – | 140.52 m/s
300.01 K, 113.38 kPa, Gas | – | 138.9 m/s
300.02 K, 113.38 kPa, Gas | – | 138.9 m/s
305 K, 8702.1 kPa, Liquid | 1271.4 | –
309.99 K, 12156 kPa, Liquid | 1269.71 | –
309.99 K, 12442 kPa, Liquid | 1270.47 | –
314.99 K, 8185.4 kPa, Liquid | 1247.49 | –
314.99 K, 16168 kPa, Liquid | 1269.57 | –
315 K, 1207.6 kPa, Liquid | 1224.52 | –
315 K, 4179.3 kPa, Liquid | 1234.82 | –
315 K, 11929 kPa, Liquid | 1258.3 | –
319.59 K, 129.53 kPa, Gas | – | 143.66 m/s
319.59 K, 183.14 kPa, Gas | – | 141.46 m/s
319.6 K, 129.45 kPa, Gas | – | 143.67 m/s
319.6 K, 150.69 kPa, Gas | – | 142.81 m/s
319.6 K, 150.7 kPa, Gas | – | 142.81 m/s
319.6 K, 183.09 kPa, Gas | – | 141.46 m/s
319.6 K, 183.12 kPa, Gas | – | 141.46 m/s
319.61 K, 68.35 kPa, Gas | – | 146.03 m/s
319.61 K, 129.45 kPa, Gas | – | 143.67 m/s
319.61 K, 215.09 kPa, Gas | – | 140.12 m/s
319.61 K, 215.18 kPa, Gas | – | 140.11 m/s
319.61 K, 215.23 kPa, Gas | – | 140.11 m/s
319.62 K, 68.35 kPa, Gas | – | 146.03 m/s
319.99 K, 4450.8 kPa, Liquid | 1223.61 | –
319.99 K, 19560 kPa, Liquid | 1267.92 | –
325 K, 7686.4 kPa, Liquid | 1222.74 | –
330 K, 10903 kPa, Liquid | 1221.9 | –
335.01 K, 948 kPa, Liquid | 1170.3 | –
335.01 K, 4081.7 kPa, Liquid | 1184.44 | –
335.01 K, 7985.8 kPa, Liquid | 1199.99 | –
335.01 K, 11894 kPa, Liquid | 1213.83 | –
335.01 K, 14112 kPa, Liquid | 1221.09 | –
339.43 K, 353.83 kPa, Gas | – | 140.91 m/s
339.44 K, 145.11 kPa, Gas | – | 148.28 m/s
339.44 K, 267.82 kPa, Gas | – | 144.07 m/s
339.44 K, 267.83 kPa, Gas | – | 144.07 m/s
339.44 K, 267.89 kPa, Gas | – | 144.07 m/s
339.44 K, 353.63 kPa, Gas | – | 140.92 m/s
339.44 K, 353.76 kPa, Gas | – | 140.91 m/s
339.45 K, 144.98 kPa, Gas | – | 148.29 m/s
339.45 K, 145.24 kPa, Gas | – | 148.28 m/s
339.45 K, 267.8 kPa, Gas | – | 144.08 m/s
339.45 K, 267.82 kPa, Gas | – | 144.08 m/s
339.47 K, 199.9 kPa, Gas | – | 146.45 m/s
339.47 K, 268.41 kPa, Gas | – | 144.06 m/s
339.47 K, 321.82 kPa, Gas | – | 142.12 m/s
339.47 K, 447.53 kPa, Gas | – | 137.13 m/s
339.48 K, 199.88 kPa, Gas | – | 146.45 m/s
339.48 K, 268.39 kPa, Gas | – | 144.06 m/s
339.48 K, 268.43 kPa, Gas | – | 144.06 m/s
339.48 K, 322.03 kPa, Gas | – | 142.12 m/s
339.48 K, 374.34 kPa, Gas | – | 140.12 m/s
339.48 K, 447.52 kPa, Gas | – | 137.13 m/s
339.48 K, 447.57 kPa, Gas | – | 137.13 m/s
339.49 K, 85.51 kPa, Gas | – | 150.21 m/s
339.49 K, 85.52 kPa, Gas | – | 150.22 m/s
339.49 K, 322.01 kPa, Gas | – | 142.12 m/s
340 K, 3674.5 kPa, Liquid | 1169.48 | –
345.01 K, 6402.5 kPa, Liquid | 1168.7 | –
349.98 K, 366.9 kPa, Gas | 17.985 | –
350 K, 9119.8 kPa, Liquid | 1167.95 | –
355.01 K, 990.8 kPa, Liquid | 1111.28 | –
355.01 K, 2028.5 kPa, Liquid | 1117.99 | –
355.01 K, 3980.1 kPa, Liquid | 1129.59 | –
355.01 K, 6026.4 kPa, Liquid | 1140.59 | –
355.01 K, 8135 kPa, Liquid | 1150.94 | –
355.01 K, 9972.9 kPa, Liquid | 1159.29 | –
355.01 K, 11833 kPa, Liquid | 1167.22 | –
359.44 K, 307.1 kPa, Gas | – | 148.62 m/s
359.44 K, 400.17 kPa, Gas | – | 145.8 m/s
359.44 K, 400.23 kPa, Gas | – | 145.8 m/s
359.44 K, 500.35 kPa, Gas | – | 142.58 m/s
359.44 K, 596.92 kPa, Gas | – | 139.26 m/s
359.45 K, 307.02 kPa, Gas | – | 148.63 m/s
359.45 K, 307.4 kPa, Gas | – | 148.62 m/s
359.45 K, 400.08 kPa, Gas | – | 145.81 m/s
359.45 K, 500.35 kPa, Gas | – | 142.58 m/s and 142.58 m/s
359.45 K, 596.94 kPa, Gas | – | 139.26 m/s
359.45 K, 596.95 kPa, Gas | – | 139.26 m/s
359.98 K, 499.3 kPa, Gas | 24.386 | –
360 K, 387.4 kPa, Gas | 18.379 | –
360 K, 916.6 kPa, Fluid (supercritical or subcritical phases) | 1094.63 | –
360 K, 3249 kPa, Liquid | 1110.57 | –
364 K, 2629 kPa, Fluid (supercritical or subcritical phases) | 1094.08 | –
365.01 K, 5510.3 kPa, Liquid | 1109.87 | –
368 K, 1297.9 kPa, Fluid (supercritical or subcritical phases) | 1070.52 | –
368 K, 4345.4 kPa, Fluid (supercritical or subcritical phases) | 1093.56 | –
370 K, 523.6 kPa, Gas | 24.719 | –
370.01 K, 524 kPa, Gas | 24.736 | –
370.01 K, 7766.7 kPa, Liquid | 1109.2 | –
370.02 K, 407.6 kPa, Gas | 18.73 | –
372 K, 2880.6 kPa, Fluid (supercritical or subcritical phases) | 1070 | –
375.01 K, 2017.2 kPa, Liquid | 1052.12 | –
375.01 K, 4033.7 kPa, Liquid | 1069.29 | –
375.01 K, 5918 kPa, Liquid | 1083.16 | –
375.01 K, 7957.7 kPa, Liquid | 1096.46 | –
375.01 K, 10021 kPa, Liquid | 1108.53 | –
376 K, 1522.5 kPa, Fluid (supercritical or subcritical phases) | 1043.77 | –
376 K, 4464.2 kPa, Fluid (supercritical or subcritical phases) | 1069.49 | –
379.77 K, 81.05 kPa, Gas | – | 159.47 m/s and 159.47 m/s
379.77 K, 81.06 kPa, Gas | – | 159.48 m/s
379.77 K, 201.41 kPa, Gas | – | 156.72 m/s

Liquid
Conditions | vapor or sublimation pressure [kPa]
280.01 K | 65.1
290.01 K | 96.5
300 K | 139
310.01 K | 194.9
320.02 K | 267.1
330.01 K | 357.9
340.01 K | 470.7
350.02 K | 608.7
360.02 K | 775
370.03 K | 973.2
